Measurements taken from paper PMC5902452, “In silico optimization of a guava antimicrobial peptide enables combinatorial exploration for peptide design” (Nature Communications, 2018).
Converted amounts (≈) assume the structure as drawn. Peptide text beside a SMILES is read from it.

Key:
E. coli ATCC 25922 [1] = assay: Membrane polarization assay with DiSC3(5); format: cell-based, Escherichia coli; details: 5 µM, positive control
Description: When the cytoplasmic membrane is intact, the fluorescent probe DiSC3(5) accumulates into the cytoplasmic membrane and then aggregates, causing self-quenching of the fluorescence. In the presence of a membrane-depolarizing agent, DiSC3(5) is released into the medium, leading to an increase in fluorescence that can be monitored over time[59]. Briefly, exponentially growing bacteria were centrifuged (1000 × g, 10 min, 4 °C), washed with PBS, and resuspended in the same buffer to an A630 of 0.1; then 700 µL of bacteria were pre-incubated with 1 µM DiSC3(5) in the dark during 10 min at 37 °C, and then 100 µL of 1 mM KCl were added in order to equilibrate the cytoplasmic and external K^+ concentrations. […] Three independent experiments were performed and results correspond to a representative experiment with negative (PBS) and positive (melittin) controls.

E. coli ATCC 25922 [2] = assay: SYTOX green uptake assay (membrane permeabilization); format: cell-based, Escherichia coli; details: 5 µM, positive control
Description: SG is impermeant to live cells and when the cell membrane is damaged, this dye penetrates into the cell and binds to intracellular DNA, due to its high-affinity to nucleic acids, leading to an increase in fluorescence. Exponentially growing bacteria (6 × 10^5 cfu mL^−1) were resuspended in PBS after centrifugation (1000 × g, 10 min, 4 °C) and washing steps. About 792 μL of the bacterial suspension was pre-incubated with 8 μL of 100 μM SG during 30 min at 37 °C in the dark. […] Results correspond to a representative experiment with negative (PBS) and positive (melittin) controls. Three independent experiments were performed.

[3] = tested on: P. aeruginosa strain PAO1; assay: Scarification skin infection mouse model; format: in vivo, female CD-1 mice
Description: P. aeruginosa strain PAO1 was grown to an optical density at 600 nm (OD600) of 1 in tryptic soy broth medium. Subsequently cells were washed twice with sterile PBS, and resuspended to a final concentration of 5 × 10^7 CFU in 50 μL. To generate skin infection, female CD-1 mice (6 weeks old) were anesthetized with isoflurane and had their backs shaved. A superficial linear skin abrasion was made with a needle in order to damage the stratum corneum and upper layer of the epidermis. Five minutes after wounding, an aliquot of 50 μL containing 5 × 10^7 CFU of bacteria in PBS was inoculated over each defined area containing the scratch with a pipette tip. One day after the infection, peptides were administered to the infected area. Animals were euthanized and the area of scarified skin was excised 2 and 4 days post-infection, homogenized using a bead beater for 20 min (25 Hz), and serially diluted for CFU quantification. Two independent experiments were performed with four mice per group in each case. Statistical significance was assessed using a two-way ANOVA. Animals were maintained in accordance with the Guide for the Care and Use of Laboratory Animals in an AAALAC-accredited facility. All procedures were approved by the MIT’s Institutional Animal Care and Use Committee (IACUC), protocol number 1016-064-19.

erythrocytes = details: cited from earlier work
[4] = tested on: P. aeruginosa H1001 (fliC::luxCDABE); format: cell-based, Pseudomonas aeruginosa; details: SPOT-synthesized unpurified crude peptide (~70% purity); bioluminescent engineered P. aeruginosa; BM2 medium; 4 h, 37 °C; reduction of luminescence; 200 to 3 μg mL−1 tested
Description: A peptide array composed of 20 peptides (15 guavanins, 4 Pg-AMP1 fragments, and magainin 2) was designed and synthesized by Kinexus Bioinformatics Corporation (Vancouver, BC). Peptides were produced in a standard mass of 80 μg by using cellulose support in SPOT technology. The crude synthetic peptides were obtained from cellulose membrane discs that had already been treated with ammonia gas to release the peptides from the membrane. Peptides were then dissolved overnight in distilled water and subsequently evaluated for their biological activities, as described below.
The antimicrobial activity of the synthesized peptides was evaluated against an engineered luminescent P. aeruginosa H1001 (fliC::luxCDABE) strain in 96-well microplates. Aqueous solutions of peptides released from the cellulose spots were diluted twofold in BM2 medium [62 mM potassium phosphate buffer pH 7; 2 mM MgSO4; 10 μM FeSO4; 0.4% (wt/vol) glucose] down the eight wells of a 96-well plate, achieving a final volume of 25 μL in each well. Subsequently, 50 μL of overnight culture of P. aeruginosa H1001 (fliC::luxCDABE) were subcultured in 5 mL of fresh LB media and grown until they reached an OD600 of 0.4. This growing bacteria culture was then diluted 4:100 (v/v) into fresh BM2 media and 25 μL of this diluted bacterial culture was transferred to the microplate wells containing 25 μL of peptide solution. The final peptide concentrations tested ranged from 200 to 3 μg mL^−1. The plates were incubated for 4 h at 37 °C with constant shaking at 50 rpm. Luminescence was measured on a Tecan […]luor Plus Microplate Reader (Tecan US, Morrisville, NC). The antimicrobial activity was evaluated by the ability of the peptides to reduce the luminescence of P. aeruginosa-lux strain compared to untreated cells. The AMP magainin 2 and the carbapenem meropenem were used as positive controls and distilled water was used as a negative control.

human erythrocytes = assay: Hemolytic assay; details: SPOT-synthesized crude peptides; human red blood cells in NaCl 0.85%, 1 h, 37 °C; hemoglobin release at 546 nm; highest concentration 200 μg mL−1; 100% of hemolysis was not observed
Description: Fresh human venous blood was collected from volunteers in Vacutainer collection tubes containing sodium heparin as an anticoagulant (BD Biosciences, Franklin Lakes, NJ). The blood was centrifuged applying 151 × g force (1500 rpm) and the serum was removed and the blood cells were replaced and washed three times with the same volume of sterile NaCl 0.85% solution. Concentrated red blood cells were diluted tenfold in NaCl 0.85% solution and then exposed at twofold dilutions of peptides for 1 h at 37 °C, at identical concentrations used for antimicrobial assays, in the ratio of 1:1 (v/v), achieving a final volume of 100 μL. The assay was carried out in 96-well polypropylene microtiter plates. The positive control wells contained 1% of Triton X-100, representing 100% cell lysis, and negative control wells contained sterile saline. Hemoglobin release was monitored chromogenically at 546 nm using a microplate reader.

Molecule: melittin [reference compound]
- DiSC3(5) fluorescence change (membrane potential) (E. coli ATCC 25922 [1]): rapid increase in the fluorescence signal
- SYTOX Green influx (membrane permeabilization) (E. coli ATCC 25922 [2]): rapid and maximal SG fluorescence signal

Molecule: Pg-AMP1: guava glycine-rich antimicrobial peptide, UniProt P86030, template of the guavanins (RESPSSRMECYEQAERYGYGGYGGGRYGGGYGSGRGQPVGQGVERSHDDNRNQPR; UniProt P86030 1-55, looked up)
- anti-infective activity ([3]; 6.25 μg mL−1, 4 days post-infection): no activity
- effect on CFU counts / bacterial load (two-way ANOVA) ([3]; doses 6.25, 25 and 100 µg mL−1, 4 days post-infection, two experiments, four mice per group): significant reduction of bacterial load only at higher concentrations
- dose at which activity is kept after 4 days ([3]; wound infection mouse model): 25 µg/mL
- hemolytic activity (erythrocytes): hemolytic

Molecule: CC[C@H](C)[C@H](NC(=O)CNC(=O)[C@H](CCCNC(=N)N)NC(=O)[C@H](CC(N)=O)NC(=O)[C@H](Cc1ccccc1)NC(=O)[C@H](CO)NC(=O)[C@H](CCCNC(=N)N)NC(=O)[C@H](CO)NC(=O)[C@H](C)NC(=O)[C@H](CCC(N)=O)NC(=O)[C@H](CCCCN)NC(=O)[C@H](Cc1ccc(O)cc1)NC(=O)[C@H](CC(C)C)NC(=O)[C@H](CCC(=O)O)NC(=O)[C@H](CCSC)NC(=O)[C@@H](NC(=O)[C@H](CO)NC(=O)[C@@H](N)CCCNC(=N)N)[C@@H](C)CC)C(=O)N[C@@H](CCCNC(=N)N)C(=O)N[C@@H](CCCNC(=N)N)C(N)=O [Guavanin 6] (H-RSIMELYKQASRSFNRGIRR-NH2)
- MIC [4]: 100 µg/mL (≈ 40.5 µM)
- Hemolysis (human erythrocytes): > 200 µg/mL

Molecule: CSCC[C@H](NC(=O)[C@H](Cc1ccc(O)cc1)NC(=O)[C@H](CCC(N)=O)NC(=O)[C@@H](N)CCCNC(=N)N)C(=O)N[C@@H](CCCNC(=N)N)C(=O)N[C@@H](Cc1ccc(O)cc1)C(=O)N[C@@H](CC(C)C)C(=O)N[C@@H](CCC(=O)O)C(=O)N[C@@H](CCC(N)=O)C(=O)N[C@@H](C)C(=O)N[C@@H](CCC(=O)O)C(=O)N[C@@H](CCCNC(=N)N)C(=O)N[C@@H](Cc1ccc(O)cc1)C(=O)N[C@H](C(=O)N[C@@H](CC(N)=O)C(=O)N[C@@H](CCCNC(=N)N)C(=O)N[C@@H](CC(N)=O)C(=O)N[C@@H](CC(C)C)C(=O)N[C@@H](CCCNC(=N)N)C(=O)N[C@@H](CCCNC(=N)N)C(N)=O)C(C)C [Guavanin 4] (H-RQYMRYLEQAERYVNRNLRR-NH2)
- MIC [4]: 100 µg/mL (≈ 36.8 µM)
- Hemolysis (human erythrocytes): > 200 µg/mL

Molecule: N=C(N)NCCC[C@H](NC(=O)CNC(=O)[C@H](CO)NC(=O)CNC(=O)[C@H](Cc1ccc(O)cc1)NC(=O)CNC(=O)CNC(=O)CNC(=O)[C@H](Cc1ccc(O)cc1)NC(=O)[C@H](CCCNC(=N)N)NC(=O)CNC(=O)CNC(=O)CNC(=O)[C@H](Cc1ccc(O)cc1)NC(=O)CNC(=O)CNC(=O)[C@H](Cc1ccc(O)cc1)NC(=O)CNC(=O)[C@@H](N)Cc1ccc(O)cc1)C(=O)NCC(N)=O [Fragment 3 (hydrophobicity)] (H-YGYGGYGGGRYGGGYGSGRG-NH2)
- MIC [4]: > 200 µg/mL
- Hemolysis (human erythrocytes): > 200 µg/mL
